Patent publication US12286443B2, “Bycyclic JAK inhibitors and uses thereof” (Insilico Medicine IP Limited, priority 2019, dated 2025)
pIC50: −log10 of the molar value.

Key:
Type in all cases: biochemical
[1] = target: T1, JAK2 (Homo sapiens, UniProt O60674); assay: Inhibition of JAK2 kinase, LANCE Ultra TR-FRET assay; details: 2x ATP 24 μM, 15 min pre-incubation, 90 min reaction, 23° C.
T1 construct: purchased Invitrogen PV4210
Description: (§1) Exemplary compounds were assayed to determine potency in inhibiting activity of JAK1-3 and TYK2 kinases by determining IC50 values.
(§2) The sources of test materials and equipment are as follows: JAK1 (Invitrogen, Cat. No PV4775), JAK2 (Invitrogen, Cat. No PV4210), JAK3 (Invitrogen, Cat. No PV4080), TYK2 (Invitrogen, Cat. No PR8440C), ATP (Sigma, Cat. No. A7699-1G), DMSO (Sigma, Cat. No. D2650), DTT (Sigma, Cat. No. 43815), 384 wells_compound plate (Greiner, Cat. No. 781280), 384 wells_assay plate (Perkin Elmer, Cat. No. 6007299), LANCE Ultra ULight™-JAK-1 peptide (Perkin Elmer, Cat. No. TRF0121), LANCET™ Eu-W1024 Anti-phosphotyrosine (PT66) (Perkin Elmer, Cat. No. AD0069), LANCET™ Detection Buffer(Perkin Elmer, Cat. No. CR97-100).
(§3) The concentrations of test compounds varied from 100 μM to 1.7 nM with 3-fold dilution, 11 points, in duplicates while the concentrations of the reference compound, Tofacitinib, varied from 1 μM to 0.017 nM with 3-fold dilution, 11 points, in duplicates.
(§4) The assay buffer contained 50 mM HEPES (pH 7.5), 0.01% Brij-35, 10 mM MgCl2, 1 mM EDTA, 2 mM DTT. Incubations were carried out at 23° C.
(§5) Prior to the assay, enzyme, peptide substrate and serially diluted test compounds were pre-incubated together in assay buffer (5 μL) for 15 minutes (peptide substrate concentration: 50 nM; JAK enzyme concentrations: 2 nM JAK1; […]; […] and 4 nM TYK2). And the assay was initiated by the addition of 5 μL assay buffer containing 2× final ATP concentration (these are the 2×ATP concentrations: 76 μM JAK1; 24 μM JAK2; 8 μM JAK3 and 30 μM TYK2). Following the 90-minute incubation, antibody conjugated with Eu is dissolved in detection buffer to add into wells and then incubated for 60 minutes. The 10 μL detection buffer contains EDTA to stop the enzymatic reaction. The plate is analyzed by Perkin Elmer Envision on TR-FRET mode. The high ratio of 665/615 represents no inhibition of kinase reaction while the low ratio of 665/615 represents complete inhibition of kinase reaction.
(§6) Curves are fit by XLFIT5 as inhibition rate % vs. log [compound concentration] using 4 parameters logistic model 205.
(§7) In the table, “A” indicates an IC50 of less than 100 nM, “B” indicates an IC50 range from 100 nM to 500 nM; “C” indicates an IC50 range from 500 nM to 2 μM; and “D” indicates an IC50 greater than 2 μM. Also, “na” indicates data is not available.

[2] = target: T2, JAK1 (Homo sapiens, UniProt P23458); assay: Inhibition of JAK1 kinase, LANCE Ultra TR-FRET assay; details: 2 nM JAK1, 2x ATP 76 μM, 15 min pre-incubation, 90 min reaction, 23° C.
T2 construct: purchased Invitrogen PV4775
T2 sequence (P23458 whole entry): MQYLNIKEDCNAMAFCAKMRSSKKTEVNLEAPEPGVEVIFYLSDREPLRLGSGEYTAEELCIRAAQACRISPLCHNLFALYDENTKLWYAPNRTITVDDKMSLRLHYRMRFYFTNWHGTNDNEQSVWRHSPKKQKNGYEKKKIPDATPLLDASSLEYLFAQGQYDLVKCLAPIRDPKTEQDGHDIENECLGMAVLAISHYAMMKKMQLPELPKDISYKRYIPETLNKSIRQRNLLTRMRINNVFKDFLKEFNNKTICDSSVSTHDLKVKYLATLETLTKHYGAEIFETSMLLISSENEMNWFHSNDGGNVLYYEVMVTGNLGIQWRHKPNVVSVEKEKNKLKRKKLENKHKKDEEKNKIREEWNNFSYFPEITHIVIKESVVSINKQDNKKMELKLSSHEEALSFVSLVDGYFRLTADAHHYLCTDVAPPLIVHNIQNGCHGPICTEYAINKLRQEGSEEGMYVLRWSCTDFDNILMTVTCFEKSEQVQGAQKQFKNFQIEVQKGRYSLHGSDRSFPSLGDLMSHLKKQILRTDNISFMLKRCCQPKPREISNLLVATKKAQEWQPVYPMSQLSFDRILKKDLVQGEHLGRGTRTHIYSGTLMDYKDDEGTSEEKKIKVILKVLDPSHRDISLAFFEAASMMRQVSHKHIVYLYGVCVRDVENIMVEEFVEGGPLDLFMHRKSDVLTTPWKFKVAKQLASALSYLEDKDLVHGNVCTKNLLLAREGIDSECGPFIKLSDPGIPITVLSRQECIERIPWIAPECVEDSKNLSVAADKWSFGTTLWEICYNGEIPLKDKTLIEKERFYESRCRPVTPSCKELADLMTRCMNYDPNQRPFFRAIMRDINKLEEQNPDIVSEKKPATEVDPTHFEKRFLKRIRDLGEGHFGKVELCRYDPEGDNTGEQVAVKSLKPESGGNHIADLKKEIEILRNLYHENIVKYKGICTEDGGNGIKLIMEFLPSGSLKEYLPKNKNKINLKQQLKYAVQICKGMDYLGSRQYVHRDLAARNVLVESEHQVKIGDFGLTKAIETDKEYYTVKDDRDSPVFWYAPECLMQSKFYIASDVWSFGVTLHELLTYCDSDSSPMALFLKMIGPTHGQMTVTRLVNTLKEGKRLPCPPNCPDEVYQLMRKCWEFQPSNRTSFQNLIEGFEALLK
Description: as §1, §2, §3, §4, §5, §6, §7

[3] = target: T3, JAK3 (Homo sapiens, UniProt P52333); assay: Inhibition of JAK3 kinase, LANCE Ultra TR-FRET assay; details: 2x ATP 8 μM, 15 min pre-incubation, 90 min reaction, 23° C.
T3 construct: purchased Invitrogen PV4080
T3 sequence (P52333 1-1124): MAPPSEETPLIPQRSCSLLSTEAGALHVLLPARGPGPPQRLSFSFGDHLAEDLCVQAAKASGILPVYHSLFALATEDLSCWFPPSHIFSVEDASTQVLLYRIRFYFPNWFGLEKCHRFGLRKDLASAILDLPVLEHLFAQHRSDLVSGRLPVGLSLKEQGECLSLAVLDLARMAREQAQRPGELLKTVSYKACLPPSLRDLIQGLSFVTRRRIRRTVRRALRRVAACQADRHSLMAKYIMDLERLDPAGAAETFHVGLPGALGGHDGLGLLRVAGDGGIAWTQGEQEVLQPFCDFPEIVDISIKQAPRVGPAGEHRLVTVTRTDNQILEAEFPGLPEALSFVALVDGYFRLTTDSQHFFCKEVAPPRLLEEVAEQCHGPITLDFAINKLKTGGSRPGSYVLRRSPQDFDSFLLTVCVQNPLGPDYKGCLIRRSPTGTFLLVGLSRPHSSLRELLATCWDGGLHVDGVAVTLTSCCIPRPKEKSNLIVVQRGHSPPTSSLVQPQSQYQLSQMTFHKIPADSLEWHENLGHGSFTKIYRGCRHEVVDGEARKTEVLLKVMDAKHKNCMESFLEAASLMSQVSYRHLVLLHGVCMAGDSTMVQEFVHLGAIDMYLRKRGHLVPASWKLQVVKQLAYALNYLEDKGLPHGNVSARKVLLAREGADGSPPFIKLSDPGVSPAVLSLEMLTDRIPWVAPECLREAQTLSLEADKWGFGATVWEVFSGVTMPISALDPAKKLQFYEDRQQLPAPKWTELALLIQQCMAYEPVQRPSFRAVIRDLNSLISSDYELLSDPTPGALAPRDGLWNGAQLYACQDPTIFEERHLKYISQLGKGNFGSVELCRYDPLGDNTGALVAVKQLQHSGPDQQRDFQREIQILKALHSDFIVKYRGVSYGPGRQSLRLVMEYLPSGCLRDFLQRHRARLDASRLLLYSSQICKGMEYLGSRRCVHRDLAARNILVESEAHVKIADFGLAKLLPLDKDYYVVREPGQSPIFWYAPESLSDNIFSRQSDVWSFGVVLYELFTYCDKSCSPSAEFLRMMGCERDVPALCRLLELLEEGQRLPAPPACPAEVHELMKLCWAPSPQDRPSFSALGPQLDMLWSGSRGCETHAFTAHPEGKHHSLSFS
Description: as §1, §2, §3, §4, §5, §6, §7

[4] = target: T4, TYK2 (Homo sapiens, UniProt P29597); assay: Inhibition of TYK2 kinase, LANCE Ultra TR-FRET assay; details: 4 nM TYK2, 2x ATP 30 μM, 15 min pre-incubation, 90 min reaction, 23° C., read-out: tyk IC50
T4 construct: purchased Invitrogen PR8440C
T4 sequence (P29597 whole entry): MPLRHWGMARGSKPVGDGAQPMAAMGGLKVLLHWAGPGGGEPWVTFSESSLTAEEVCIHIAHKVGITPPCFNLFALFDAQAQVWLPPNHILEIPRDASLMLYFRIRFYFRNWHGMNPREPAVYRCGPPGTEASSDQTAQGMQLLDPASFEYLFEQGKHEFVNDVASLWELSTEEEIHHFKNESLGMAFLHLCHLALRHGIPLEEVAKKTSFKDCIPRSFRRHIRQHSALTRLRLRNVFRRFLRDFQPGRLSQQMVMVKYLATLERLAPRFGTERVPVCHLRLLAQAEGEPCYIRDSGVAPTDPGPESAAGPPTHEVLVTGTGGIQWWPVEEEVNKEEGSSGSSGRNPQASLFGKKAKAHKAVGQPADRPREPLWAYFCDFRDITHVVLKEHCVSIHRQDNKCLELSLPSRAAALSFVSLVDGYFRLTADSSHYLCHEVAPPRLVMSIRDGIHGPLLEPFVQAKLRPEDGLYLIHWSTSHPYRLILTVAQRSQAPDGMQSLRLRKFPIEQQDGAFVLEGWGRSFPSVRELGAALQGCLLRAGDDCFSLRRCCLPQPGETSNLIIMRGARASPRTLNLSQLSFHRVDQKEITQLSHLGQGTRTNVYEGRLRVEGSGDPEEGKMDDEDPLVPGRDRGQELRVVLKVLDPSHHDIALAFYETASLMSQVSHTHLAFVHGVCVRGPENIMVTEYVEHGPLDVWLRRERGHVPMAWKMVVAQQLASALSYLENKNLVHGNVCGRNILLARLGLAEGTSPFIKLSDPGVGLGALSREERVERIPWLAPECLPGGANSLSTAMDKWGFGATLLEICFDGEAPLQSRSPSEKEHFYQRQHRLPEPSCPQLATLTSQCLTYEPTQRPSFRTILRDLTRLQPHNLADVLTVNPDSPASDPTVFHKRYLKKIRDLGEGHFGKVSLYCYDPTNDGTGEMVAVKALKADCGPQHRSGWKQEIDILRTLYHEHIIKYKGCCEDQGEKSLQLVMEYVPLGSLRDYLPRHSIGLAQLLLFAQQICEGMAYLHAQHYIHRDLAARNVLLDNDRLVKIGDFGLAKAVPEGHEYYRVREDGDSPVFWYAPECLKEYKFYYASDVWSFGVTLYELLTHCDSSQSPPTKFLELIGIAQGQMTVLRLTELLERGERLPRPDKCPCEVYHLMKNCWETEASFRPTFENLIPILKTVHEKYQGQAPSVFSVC
Description: as §1, §2, §3, §4, §5, §6, §7

T1 sequence (O60674 whole entry): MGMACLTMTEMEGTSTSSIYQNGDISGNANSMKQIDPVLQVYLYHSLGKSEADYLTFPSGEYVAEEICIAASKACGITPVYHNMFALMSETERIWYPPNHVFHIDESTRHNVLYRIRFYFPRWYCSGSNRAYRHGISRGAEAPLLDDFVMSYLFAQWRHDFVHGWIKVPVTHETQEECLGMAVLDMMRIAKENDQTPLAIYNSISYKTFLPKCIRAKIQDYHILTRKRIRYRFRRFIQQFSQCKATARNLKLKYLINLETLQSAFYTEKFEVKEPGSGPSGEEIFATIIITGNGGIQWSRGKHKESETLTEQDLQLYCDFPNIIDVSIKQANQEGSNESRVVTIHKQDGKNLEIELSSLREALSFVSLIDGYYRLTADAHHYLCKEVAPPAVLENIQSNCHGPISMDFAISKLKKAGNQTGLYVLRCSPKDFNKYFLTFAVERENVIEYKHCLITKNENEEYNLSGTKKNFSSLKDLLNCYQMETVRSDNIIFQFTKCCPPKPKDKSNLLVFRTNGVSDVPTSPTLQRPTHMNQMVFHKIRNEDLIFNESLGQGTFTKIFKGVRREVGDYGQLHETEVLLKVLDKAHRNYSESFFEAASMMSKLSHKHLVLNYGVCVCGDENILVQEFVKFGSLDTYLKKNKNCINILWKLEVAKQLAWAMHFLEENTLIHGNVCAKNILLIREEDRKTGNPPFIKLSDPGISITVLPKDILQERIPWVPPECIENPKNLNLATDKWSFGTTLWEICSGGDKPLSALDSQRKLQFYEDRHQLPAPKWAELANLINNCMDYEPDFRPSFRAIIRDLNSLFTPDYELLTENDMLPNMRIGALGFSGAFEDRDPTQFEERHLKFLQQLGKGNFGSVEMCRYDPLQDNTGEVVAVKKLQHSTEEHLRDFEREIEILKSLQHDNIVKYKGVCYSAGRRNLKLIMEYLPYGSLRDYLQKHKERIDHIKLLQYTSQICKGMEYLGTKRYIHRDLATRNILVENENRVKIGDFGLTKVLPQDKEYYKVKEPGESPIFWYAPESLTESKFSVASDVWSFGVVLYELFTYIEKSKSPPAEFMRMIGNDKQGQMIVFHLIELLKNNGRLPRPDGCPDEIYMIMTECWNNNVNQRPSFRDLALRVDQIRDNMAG

Row | Compound | pIC50 [1] | pIC50 [2] | pIC50 [3] | pIC50 [4]
1 | O=C(NCCC(O)C1CCCC1)c1noc2c1CN(c1ncnc3[nH]ccc13)CC2 (centres unmarked) [Compound 159] | < 5.70 | 5.70 to 6.30 | 6.30 to 7.00 | < 5.70
2 | O=C(NCCN1CCC1)c1noc2c1CN(c1ncnc3[nH]ccc13)CC2 [Compound 152] | < 5.70 | < 5.70 | < 5.70 | < 5.70
3 | Cn1nc(C(=O)N[C@H]2C[C@H](C(=O)NS(C)(=O)=O)C2)c2c1CCN(c1ncnc3[nH]ccc13)C2 [Compound 125] | 5.70 to 6.30 | 6.30 to 7.00 | 6.30 to 7.00 | < 5.70
4 | O=C(NCCC(F)(F)F)c1nn(CCCCc2ccccc2)c2c1CN(c1ncnc3[nH]ccc13)CC2 [Compound 116] | < 5.70 | 6.30 to 7.00 | 6.30 to 7.00 | < 5.70
5 | Cc1cnc(CCNC(=O)c2noc3c2CN(c2ncnc4[nH]ccc24)CC3)o1 [Compound 139] | < 5.70 | < 5.70 | < 5.70 | < 5.70
6 | CNS(=O)(=O)CCNC(=O)c1noc2c1CN(c1ncnc3[nH]ccc13)CC2 [Compound 157] | 6.30 to 7.00 | > 7.00 | > 7.00 | < 5.70
7 | O=C(NCCS(=O)(=O)N1CCCC1)c1noc2c1CN(c1ncnc3[nH]ccc13)CC2 [Compound 135] | 6.30 to 7.00 | 6.30 to 7.00 | 6.30 to 7.00 | < 5.70
8 | FC(F)(F)CCNCc1n[nH]c2c1CN(c1ncnc3[nH]ccc13)CC2 [Compound 131] | 6.30 to 7.00 | 6.30 to 7.00 | > 7.00 | 6.30 to 7.00
9 | CN(C)C1CN(CCNC(=O)c2noc3c2CN(c2ncnc4[nH]ccc24)CC3)C1 [Compound 160] | < 5.70 | 5.70 to 6.30 | 5.70 to 6.30 | < 5.70
10 | O=C(NCCC(F)(F)F)c1nn(-c2ccccc2)c2c1CN(c1ncnc3[nH]ccc13)CC2 [Compound 114] | 5.70 to 6.30 | 6.30 to 7.00 | > 7.00 | 5.70 to 6.30
11 | Cn1nc(C(=O)N[C@H]2C[C@H](CC#N)C2)c2c1CCN(c1ncnc3[nH]ccc13)C2 [Compound 128] | 5.70 to 6.30 | 5.70 to 6.30 | 5.70 to 6.30 | < 5.70
12 | O=C(NCCc1ccccn1)c1noc2c1CN(c1ncnc3[nH]ccc13)CC2 [Compound 153] | 5.70 to 6.30 | 5.70 to 6.30 | 6.30 to 7.00 | < 5.70
13 | O=C(NCCN1CCS(=O)(=O)CC1)c1noc2c1CN(c1ncnc3[nH]ccc13)CC2 [Compound 161] | < 5.70 | 5.70 to 6.30 | 5.70 to 6.30 | < 5.70
14 | COC(=O)[C@H]1C[C@H](NC(=O)c2nn(C)c3c2CN(c2ncnc4[nH]ccc24)CC3)C1 [Compound 121] | < 5.70 | < 5.70 | < 5.70 | < 5.70
15 | O=C(NCCC(F)(F)F)c1nn(CCCc2ccccn2)c2c1CN(c1ncnc3[nH]ccc13)CC2 [Compound 108] | < 5.70 | < 5.70 | 6.30 to 7.00 | < 5.70
16 | C=CCn1nc(C(=O)NCCC(F)(F)F)c2c1CCN(c1ncnc3[nH]ccc13)C2 [Compound 113] | 6.30 to 7.00 | 6.30 to 7.00 | > 7.00 | 5.70 to 6.30
17 | O=C(NCCC1(O)CC(F)(F)C1)c1noc2c1CN(c1ncnc3[nH]ccc13)CC2 [Compound 149] | 5.70 to 6.30 | 5.70 to 6.30 | 6.30 to 7.00 | < 5.70
18 | CS(=O)(=O)N1CC(CNC(=O)c2noc3c2CN(c2ncnc4[nH]ccc24)CC3)C1 [Compound 168] | 5.70 to 6.30 | 5.70 to 6.30 | 6.30 to 7.00 | < 5.70
19 | O=C(NCCC(F)(F)F)c1nn(CCc2cccnc2)c2c1CN(c1ncnc3[nH]ccc13)CC2 [Compound 106] | < 5.70 | < 5.70 | 6.30 to 7.00 | < 5.70
20 | CSC(CNC(=O)c1noc2c1CN(c1ncnc3[nH]ccc13)CC2)C(F)(F)F (centres unmarked) [Compound 191] | 6.30 to 7.00 | 6.30 to 7.00 | 6.30 to 7.00 | < 5.70
21 | CCCS(=O)(=O)NC(=O)[C@H]1C[C@H](NC(=O)c2nn(C)c3c2CN(c2ncnc4[nH]ccc24)CC3)C1 [Compound 127] | 5.70 to 6.30 | 6.30 to 7.00 | 6.30 to 7.00 | < 5.70
22 | O=C(NCCC(F)(F)F)c1nsc2c1CN(c1ncnc3[nH]ccc13)CC2 [Compound 141] | > 7.00 | > 7.00 | > 7.00 | 6.30 to 7.00
23 | O=C(NCCC(F)(F)F)c1nn(Cc2ccccc2)c2c1CN(c1ncnc3[nH]ccc13)CC2 [Compound 111] | 5.70 to 6.30 | 6.30 to 7.00 | > 7.00 | < 5.70
24 | CS(=O)(=O)C(CCNC(=O)c1noc2c1CN(c1ncnc3[nH]ccc13)CC2)C(F)(F)F (centres unmarked) [Compound 170] | 6.30 to 7.00 | 6.30 to 7.00 | 6.30 to 7.00 | < 5.70
25 | O=C(NCCc1ccccc1)c1noc2c1CN(c1ncnc3[nH]ccc13)CC2 [Compound 163] | 6.30 to 7.00 | 6.30 to 7.00 | > 7.00 | < 5.70
26 | CS(=O)(=O)N1CC(CCNC(=O)c2noc3c2CN(c2ncnc4[nH]ccc24)CC3)C1 [Compound 169] | 5.70 to 6.30 | 5.70 to 6.30 | 6.30 to 7.00 | < 5.70
27 | Cn1nc(C(=O)N[C@H]2C[C@H](C(=O)NCCC(F)(F)F)C2)c2c1CCN(c1ncnc3[nH]ccc13)C2 [Compound 124] | < 5.70 | 5.70 to 6.30 | 5.70 to 6.30 | < 5.70
28 | O=C(NC[C@@H]1CC[C@@H]1O)c1noc2c1CN(c1ncnc3[nH]ccc13)CC2 (relative stereo) [Compound 150-2] | 6.30 to 7.00 | 6.30 to 7.00 | > 7.00 | < 5.70
29 | CS(=O)(=O)N1CCCC1CCNC(=O)c1noc2c1CN(c1ncnc3[nH]ccc13)CC2 (centres unmarked) [Compound 164] | < 5.70 | 5.70 to 6.30 | 6.30 to 7.00 | < 5.70
